How the values were obtained:
[1] = system: suspension HEK293 cells (FreeStyle 293F cell); assay type: cell-based; conditions: for titer of adeno-associated virus vector in the cell-derived sample, various cell growth inhibitors A: nocodazole 500 nM, benzimidazoles 50 μM, 5 μM, 500 nM, vinblastine sulfate, colcemid, taxanes 5 μM, 100 nM, FIG. 3 to 7
suspension HEK293 cells [2] = test: Titer of adeno-associated virus vector (AAV2) produced with a bioreactor (400 mL culture medium), quantitative PCR; assay type: cell-based; conditions: nocodazole final 500 nM in DMSO, added 4 hours after introduction of the nucleic acid; vs w/o; FIG. 9
Experimental: On the day of introduction of a nucleic acid into the cells, the suspension HEK293 cells were seeded in a bioreactor (animal cell culture apparatus BCP, volume 1 L, ABLE Corporation), with the number of cells being adjusted to 1×10^6 cells/mL (in an amount of culture medium of 400 mL).
pRC2-mi342 (1 μg/μL, 240 μL, packaging plasmid DNA), pAAV-Venus (1 μg/μL, 80 μL, vector plasmid DNA), pHelper (1 μg/μL, 160 μL, helper plasmid DNA), and PEI MAX (1 μg/μL, 960 μL, Polysciences Inc.) as polyethylenimine (PEI) were mixed and left to stand in Opti-MEM (Thermo Fisher Scientific K.K.) for production of a double-stranded circular plasmid DNA-PEI mixed solution.
Nucleic acids were introduced into the cells by adding the double-stranded circular plasmid DNA-PEI mixed solution to the cell culture medium. Thereafter, AAV2 was produced by culturing at 37° C. in the presence of 8% CO2 for 4 days.
Four days after introduction of the nucleic acid into the cells, the supernatant and the cells were separated, PEG8000 (Sigma-Aldrich Co. LLC) was added to the supernatant obtained, and the adeno-associated virus vector was concentrated. Triton X-100 (Sigma-Aldrich Co. LLC) was added to the residual for cell lysis, and thereafter KANEKA Endonuclease (KANEKA CORPORATION) was added for degradation of DNA. […]
Quantification of the adeno-associated virus was performed by the same method as in Example 1.

suspension HEK293 cells [3] = test: Titer of adeno-associated virus vector (AAV2) by quantitative PCR after introducing linear covalently closed DNA (LCC DNA) with PEI; assay type: cell-based; conditions: for titer of adeno-associated virus vector from the cell-derived sample, LCC DNA: DMSO as solubilizer, nocodazole 500 nM added 1 minute after introduction, oxibendazole 50 μM, 5 μM, 500 nM, 50 nM, FIG. 11
Experimental: On the day of introduction of the nucleic acid into the cells, the suspension HEK293 cells were seeded in a 50-mL centrifuge tube equipped with a filter cap, with the number of cells being adjusted to 1×10^6 cells/mL (an amount of culture medium of 5 mL).
In the condition where a linear covalently closed DNA was used as the nucleic acid to be introduced into the cells, RC2_LCC_DNA (1 μg/μL, 4 μL, packaging plasmid DNA), Venus_LCC_DNA (1 μg/μL, 1 μL, vector plasmid DNA), Helper_LCC_DNA (1 μg/μL, 1 μL, helper plasmid DNA), and PEI MAX (1 μg/μL, 12 μL, Polysciences Inc.) as polyethylenimine (PEI) were mixed and left to stand in Opti-MEM (Thermo Fisher Scientific K.K.) for production of a LCC DNA-PEI mixed solution. Nucleic acids were introduced into the cells by adding the LCC DNA-PEI mixed solution to the cell culture medium. Thereafter, AAV2 was produced by culturing at 37° C. in the presence of 8% CO2 for 4 days.
Extraction and quantification of the adeno-associated virus vector were carried out by the same methods as in Example 1.
When the cell growth inhibitor A was oxibendazole (Tokyo Chemical Industry Co., Ltd.), DMSO was used as a solubilizer, and oxibendazole was added to the cell culture medium so that the final concentrations of oxibendazole were four kinds of concentrations, i.e., 50 μM, 5 μM, 500 nM, and 50 nM.

virus-like particles = conditions: known from Non Patent Literature 1; cited from earlier work
[4] = added 4 hours after introduction of the nucleic acid, DMSO as solubilizer

CCCSc1ccc2nc(NC(=O)OC)[nH]c2c1 [albendazole]
titer of adeno-associated virus vector in the cell-derived sample, various cell growth inhibitors A [1, 4]: improved

CC(=O)O[C@@]12CO[C@@H]1C[C@H](O)[C@@]1(C)C(=O)[C@H](O)C3=C(C)[C@@H](OC(=O)[C@H](O)[C@@H](NC(=O)OC(C)(C)C)c4ccccc4)C[C@@](O)([C@@H](OC(=O)c4ccccc4)[C@H]21)C3(C)C [docetaxel]
titer of adeno-associated virus vector in the cell-derived sample, various cell growth inhibitors A [1, 4]: improved

COC(=O)Nc1nc2ccc(Sc3ccccc3)cc2[nH]1 [fenbendazole]
titer of adeno-associated virus vector in the cell-derived sample, various cell growth inhibitors A [1, 4]: improved

COC(=O)Nc1nc2ccc(C(=O)c3cccs3)cc2[nH]1 [nocodazole]
titer of adeno-associated virus vector in the cell-derived sample, various cell growth inhibitors A [1, 4]: improved | total titer of adeno-associated virus vector (cell-derived sample and supernatant-derived sample) ([1]; final concentration from 250 nM to 2 μM, DMSO as solubilizer, added 4 hours after introduction of the nucleic acid, 4 days culture, vs 0 nM (DMSO only), FIG. 1): improved | effect of improving the titer of adeno-associated virus vector (cell-derived sample) compared with sodium valproate ([1]; nocodazole 500 nM in DMSO vs sodium valproate (VPA) 1, 2.5, 5, 10 or 12.5 mM in water, FIG. 8): larger | increase of the titer of adeno-associated virus vector (cell-derived sample), double-stranded circular plasmid DNA ([1]; nocodazole 500 nM in DMSO, added 1 minute after introduction of the nucleic acid, pDNA, vs w/o, FIG. 10): eightfold | titer of adeno-associated virus vector in the cell-derived sample, influence of timing of addition ([1]; nocodazole final 500 nM in DMSO, added between 24 hours before and 4 hours after introduction of the nucleic acid, vs DMSO only, FIG. 2): improved | total titer of adeno-associated virus vector (cell-derived and supernatant-derived sample) at bioreactor scale (suspension HEK293 cells [2]): reproduced | titer of adeno-associated virus vector from the cell-derived sample, LCC DNA (suspension HEK293 cells [3]): increased | increase of the titer of adeno-associated virus vector (cell-derived sample), linear covalently closed DNA (suspension HEK293 cells [3]; nocodazole 500 nM in DMSO, added 1 minute after introduction of the nucleic acid, vs w/o, FIG. 10): fourteenfold | productivity of virus-like particles (virus-like particles): reduces

CCCOc1ccc2nc(NC(=O)OC)[nH]c2c1 [oxibendazole]
titer of adeno-associated virus vector from the cell-derived sample, LCC DNA (suspension HEK293 cells [3]): increased

CC(=O)O[C@H]1C(=O)[C@@]2(C)[C@H]([C@H](OC(=O)c3ccccc3)[C@]3(O)C[C@H](OC(=O)[C@H](O)[C@@H](NC(=O)c4ccccc4)c4ccccc4)C(C)=C1C3(C)C)[C@]1(OC(C)=O)CO[C@@H]1C[C@@H]2O [paclitaxel]
titer of adeno-associated virus vector in the cell-derived sample, various cell growth inhibitors A [1, 4]: improved

CC[C@]1(O)C[C@@H]2CN(CCc3c([nH]c4ccccc34)[C@@](C(=O)OC)(c3cc4c(cc3OC)N(C)[C@H]3[C@@](O)(C(=O)OC)[C@H](OC(C)=O)[C@]5(CC)C=CCN6CC[C@]43[C@@H]65)C2)C1 [vinblastine]
titer of adeno-associated virus vector in the cell-derived sample, various cell growth inhibitors A [1, 4]: improved
